Structures can show the parent of a compound that is named as a salt.

In the first assay the target is T1, human C1s protein (Homo sapiens, UniProt P09871).
T1 construct: A104
T1 sequence (P09871 16-688): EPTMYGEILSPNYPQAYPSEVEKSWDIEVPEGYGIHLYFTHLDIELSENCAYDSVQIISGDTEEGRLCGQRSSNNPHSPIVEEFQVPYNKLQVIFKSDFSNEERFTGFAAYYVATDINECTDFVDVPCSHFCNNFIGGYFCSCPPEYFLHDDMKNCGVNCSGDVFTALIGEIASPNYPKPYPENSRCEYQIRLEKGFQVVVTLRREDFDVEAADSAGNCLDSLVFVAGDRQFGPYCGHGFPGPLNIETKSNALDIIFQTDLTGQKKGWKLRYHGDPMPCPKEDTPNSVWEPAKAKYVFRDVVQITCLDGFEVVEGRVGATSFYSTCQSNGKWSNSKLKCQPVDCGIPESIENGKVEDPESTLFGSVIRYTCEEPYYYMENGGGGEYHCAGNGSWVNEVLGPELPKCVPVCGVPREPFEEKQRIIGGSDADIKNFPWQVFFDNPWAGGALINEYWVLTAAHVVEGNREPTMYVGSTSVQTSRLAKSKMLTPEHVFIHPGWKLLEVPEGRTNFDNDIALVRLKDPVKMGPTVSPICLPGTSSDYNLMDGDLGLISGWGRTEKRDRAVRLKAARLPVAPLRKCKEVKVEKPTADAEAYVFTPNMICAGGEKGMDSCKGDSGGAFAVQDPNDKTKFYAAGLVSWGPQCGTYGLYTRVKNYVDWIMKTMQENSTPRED
Briefly: C1s enzymatic assay (hydrolysis of YLGR-Rh110-dPro). The class given is biochemical. As to conditions: substrate YLGR-Rh110-dPro 20 μM, 15 min pre-incubation, 60 min RT, fluorescence. The protocol:
Compound Testing in the C1s Enzymatic Assay
The enzyme cleaves the substrate with the release of Rh110 which is highly fluorescent. C1s inhibitors prevent the hydrolysis of the substrate thus resulting in a decrease of the signal.
On the day of the experiment 0.1 mg/mL BSA (Sigma, B4287) is added fresh to the buffer. The test item stock solutions are serially diluted 1:3 or 1:4 or 1:5 with DMSO, 11-point curves, in a 384-well compound plate. Nafamostat concentration curve is always included in the assay plate as a reference control.
The high controls are prepared dispensing in 0.25 μL DMSO in column 23, rows AH or AP and low controls with 0.25 μL of 0.1 M Nafamostat. […] The YLGR-Rh110-dPro substrate is prepared as 2× of the final assay concentration of 20 μM. 1/well of 2× enzyme solution is dispensed and pre-incubated for 15 min with the compounds. The enzymatic reaction is then started with 5 μL/well of the 2× substrate solution.
“7-(1-hydroxy-3-prop-2-enyl-3,4-dihydro-2,1-benzoxazonin-7-yl)cinnolin-4-amine [Example 148]”: the “hC1s pIC50” value was determined as 8.64.

The same assay, now with this note: substrate YLGR-Rh110-dPro 20 μM, 15 min pre-incubation, 60 min RT, fluorescence, read-out: hC1s pIC50 (converted).
Consider `Cc1nc2cc(B(O)O)cc(-c3ccc4c(N)cnnc4c3)c2o1` [Example 122, [7-(4-aminocinnolin-7-yl)-2-methyl-1,3-benzoxazol-5-yl]boronic Acid Formic Acid Salt], for which the IC50 is 1.17 nM.

On to `COc1cc(C#N)c(B(O)O)cc1-c1ccc2c(N)nnc(C)c2c1` [Example 116, [5-(1-amino-4-methylphthalazin-6-yl)-2-cyano-4-methoxyphenyl]boronic Acid], for which the IC50 is 2.24 nM.

As to `COc1ccc(B(O)O)cc1-c1ccc2c(N)cnnc2c1` [Example 5, [3-(4-aminocinnolin-7-yl)-4-methoxyphenyl]boronic Acid], the IC50 was 0.589 nM.

For `Cc1nnc(N)c2ccc(-c3cc(B(O)O)ccc3P(C)(C)=O)cc12` [Example 62, [3-(1-amino-4-methylphthalazin-6-yl)-4-dimethylphosphorylphenyl]boronic Acid Formic Acid Salt], the IC50 is 28.8 nM.

As for `COc1c(C)cc(B(O)O)cc1-c1ccc2c(N)nnc(C)c2c1` [Example 42, [3-(1-amino-4-methylphthalazin-6-yl)-4-methoxy-5-methylphenyl]boronic Acid Formic Acid Salt], the IC50 is 1.38 nM.

For the compound `Nc1cnnc2cc(-c3cc(B(O)O)ccc3N3CCNS3(=O)=O)ccc12` [Example 165, [3-(4-aminocinnolin-7-yl)-4-(1,1-dioxo-1,2,5-thiadiazolidin-2-yl)phenyl]boronic Acid], the IC50 was 7.41 nM.

`COc1cc(C2CC2)c(B(O)O)cc1-c1ccc2c(N)nnc(C)c2c1` [Example 43, [5-(1-amino-4-methylphthalazin-6-yl)-2-cyclopropyl-4-methoxyphenyl]boronic Acid]: the IC50 was 1 nM.

`Cc1nnc(N)c2ccc(-c3cc(P(C)(C)=O)cc(B(O)O)c3F)cc12` [Example 47, [3-(1-amino-4-methylphthalazin-6-yl)-5-dimethylphosphoryl-2-fluorophenyl]boronic Acid Formic Acid Salt]: the IC50 is 75.9 nM.

`CC(F)(F)Oc1ccc(B(O)O)cc1-c1ccc2c(N)cnnc2c1` [Example 163, [3-(4-aminocinnolin-7-yl)-4-(1,1-difluoroethoxy)phenyl]boronic Acid Formic Acid Salt]: the IC50 was 1.05 nM.

As to `Cc1nnc(N)c2ccc(-c3ccc4c(c3)B(O)OC(C)C4)cc12` (single isomer, unassigned) [Example 72, 6-(1-hydroxy-3-methyl-3,4-dihydro-2,1-benzoxazonin-7-yl)-4-methylphthalazin-1-amine], the IC50 is 1.02 nM.

Take `Nc1cnnc2cc(-c3cc(B(O)O)ccc3OC(F)C(F)(F)F)ccc12` (stereo not shown) [Example 106, [3-(4-aminocinnolin-7-yl)-4-(1,2,2,2-tetrafluoroethoxy)phenyl]boronic Acid]: the IC50 was 1.02 nM.

Take `CC(C)c1nnc(N)c2ccc(-c3cccc(B(O)O)c3)cc12` [Example 9, [3-(1-amino-4-propan-2-ylphthalazin-6-yl)phenyl]boronic Acid Hydrochloric Acid Salt]: the IC50 is 513 nM.

With `COc1ccc(B(O)O)cc1-c1ccc2c(N)nc(C)cc2c1` [Example 22, [3-(1-amino-3-methylisoquinolin-6-yl)-4-methoxyphenyl]boronic Acid], the IC50 was 269 nM.

`CC(C)CC(=O)Nc1ccc(B(O)O)cc1-c1ccc2c(N)cnnc2c1` [Example 64, [3-(4-aminocinnolin-7-yl)-4-(3-methylbutanamido)phenyl]boronic Acid Formic Acid Salt]: the IC50 was 15.1 nM.

`Nc1cnnc2cc(-c3cc(B(O)O)ccc3OC3CC(F)(F)C3)ccc12` [Example 142, [3-(4-aminocinnolin-7-yl)-4-(3,3-difluorocyclobutoxy)phenyl]boronic Acid Formic Acid Salt]: the IC50 was 1.17 nM.

`COc1ccc(B(O)O)cc1-c1ccc2c(O)cnnc2c1` [Example 158, [3-(4-hydroxycinnolin-7-yl)-4-methoxyphenyl]boronic Acid]: the IC50 is more than 25100 nM.

As for `COc1cc(C(F)(F)F)c(B(O)O)cc1-c1ccc2c(N)cnnc2c1` [Example 83, [5-(4-aminocinnolin-7-yl)-4-methoxy-2-(trifluoromethyl)phenyl]boronic Acid], the IC50 was 4.57 nM.

Consider `Cn1nc(C2CC2)c2c(B(O)O)cc(-c3ccc4c(N)cnnc4c3)cc21` [Example 146, [6-(4-aminocinnolin-7-yl)-3-cyclopropyl-1-methyl-1H-indazol-4-yl]boronic Acid], for which the IC50 was 5.25 nM.

Consider `Nc1cnnc2cc(-c3cc(B(O)O)ccc3OC3CCC3)ccc12` [Example 117, [3-(4-aminocinnolin-7-yl)-4-cyclobutoxyphenyl]boronic Acid], for which the IC50 was 0.708 nM.

For the compound `Cc1nnc(N)c2ccc(-c3cc(B(O)O)ccc3F)cc12` [Example 19, [3-(1-amino-4-methylphthalazin-6-yl)-4-fluorophenyl]boronic acid formic acid salt], the IC50 is 1.35 nM.

As for `Cc1nnc(N)c2ccc(-c3ccc4c(c3)B(O)OCC4(F)F)cc12` [Example 66, 6-(4,4-difluoro-1-hydroxy-3H-2,1-benzoxazonin-7-yl)-4-methylphthalazin-1-amine], the IC50 is 17.4 nM.

With `Cc1nnc(N)c2ccc(-c3cccc(B(O)O)c3)cc12` [Example 4, [3-(1-amino-4-methylphthalazin-6-yl)phenyl]boronic Acid], the IC50 was 1.51 nM.

In the case of `Cc1nnc(N)c2ccc(-c3ccc4c(c3)B(O)OC(=O)C4)cc12` [Example 56, Trifluoroacetic Acid Salt], the IC50 was 5.89 nM.

As for `Nc1cnnc2cc(-c3cc(B(O)O)ccc3OCCC3CCOC3)ccc12` (stereo not shown) [Example 112, [3-(4-aminocinnolin-7-yl)-4-[2-(oxolan-3-yl)ethoxy]phenyl]boronic Acid], the IC50 was 0.776 nM.

On to `Nc1cnnc2cc(-c3cc(B(O)O)cc4ccoc34)ccc12` [Example 100, [7-(4-aminocinnolin-7-yl)-1-benzofuran-5-yl]boronic Acid], for which the IC50 is 0.776 nM.

On to `Nc1cnnc2cc(-c3cc(B(O)O)ccc3OC3CCOCC3)ccc12` [Example 51, [3-(4-aminocinnolin-7-yl)-4-(oxan-4-yloxy)phenyl]boronic Acid Formic Acid Salt], for which the IC50 was 0.724 nM.

As for `Nc1cnnc2cc(-c3cc(B(O)O)ccc3OC[C@@H]3CC(F)(F)CN3)ccc12` [Example 79, [3-(4-aminocinnolin-7-yl)-4-[[(2S)-4,4-difluoropyrrolidin-2-yl]methoxy]phenyl]boronic acid], the IC50 is 0.891 nM.

In the case of `COc1cc(OC(F)(F)F)c(B(O)O)cc1-c1ccc2c(N)nnc(C)c2c1` [Example 44, [5-(1-amino-4-methylphthalazin-6-yl)-4-methoxy-2-(trifluoromethoxy)phenyl]boronic Acid], the IC50 was 0.813 nM.

In the case of `COCCOCCOCCOCCOCCOCCOc1ccc(B(O)O)cc1-c1ccc2c(N)cnnc2c1` [Example 8, [3-(4-aminocinnolin-7-yl)-4-[2-[2-[2-[2-[2-(2-methoxyethoxy)ethoxy]ethoxy]ethoxy]ethoxy]ethoxy]phenyl]boronic Acid], the IC50 was 3.09 nM.

Regarding `Nc1cnnc2cc(-c3cc(B(O)O)ccc3N3CCCC3)ccc12` [Example 150, [3-(4-aminocinnolin-7-yl)-4-(pyrrolidin-1-yl)phenyl]boronic Acid Formic Acid Salt], the IC50 was 50.1 nM.

`Nc1cnnc2cc(-c3cc(B(O)O)ccc3Oc3ccc(F)cc3)ccc12` [Example 167, [3-(4-aminocinnolin-7-yl)-4-(4-fluorophenoxy)phenyl]boronic Acid Formic Acid Salt]: the IC50 was 1.66 nM.

With `C[C@@H]1C[C@H](Oc2ccc(B(O)O)cc2-c2ccc3c(N)cnnc3c2)C[C@H](C)O1` [Example 123, [3-(4-aminocinnolin-7-yl)-4-{[(2R,4R,6S)-2,6-dimethyloxan-4-yl]oxy}phenyl]boronic Acid Formic Acid Salt], the IC50 is 0.851 nM.

Turning to `Cc1ncc(Oc2ccc(B(O)O)cc2-c2ccc3c(N)cnnc3c2)s1` [Example 171, [3-(4-aminocinnolin-7-yl)-4-(2-methylthiazol-5-yl)oxy-phenyl]Boronic Acid Formic Acid Salt], the IC50 is 1.29 nM.

(Values after US12509474B2, “Inhibitors of complement factors and uses thereof” (Annexon, Inc., priority 2020, dated 2025).)
